Laboratory results: PMC8523698, “Preclinical characterization of an intravenous coronavirus 3CL protease inhibitor for the potential treatment of COVID19” (Nature Communications, 2021)
Values joined by “and” are separate entries in the source; they are usually repeats but may differ in a detail not shown here. Equal entries are not always repeated.

System: MRC-5 cells
Assay: Cytotoxicity in MRC-5 cells
Conditions: for % Effect: CC50 run 30-Apr-2020

`COc1cccc2[nH]c(C(=O)N[C@@H](CC(C)C)C(=O)N[C@@H](C[C@@H]3CCNC3=O)C(=O)CO)cc12` [PF-00835231-00] was tested, and the “% Well Effect” value (0.0316422 uM, minus efflux inhibitor, CC50 run 24-Apr-2020) was 5.91% and -1.40%, the “% Well Effect” value (0.100053 uM, minus efflux inhibitor, CC50 run 24-Apr-2020) was 0.31% and -2.42% and the “% Well Effect” value (0.316367 uM, minus efflux inhibitor, CC50 run 24-Apr-2020) was 0.82% and -3.88%. The “% Well Effect” value (3.16311 uM, minus efflux inhibitor, CC50 run 24-Apr-2020) was 2.27% and -2.51%, the “% Well Effect” value (3.16311 uM, plus 0.5 uM efflux inhibitor, CC50 run 22-may-2020) was 2.26% and the “% Well Effect” value (3.16311 uM, plus 0.5 uM efflux inhibitor, CC50 run 24-Apr-2020) was -4.43%. The “% Well Effect” value (10.0018 uM, minus efflux inhibitor, CC50 run 24-Apr-2020) was 4.47% and -3.27%, the “% Well Effect” value (10.0018 uM, plus 0.5 uM efflux inhibitor, CC50 run 22-may-2020) was 2.88% and the “% Well Effect” value (10.0018 uM, plus 0.5 uM efflux inhibitor, CC50 run 24-Apr-2020) was -5.99%. For the same molecule, the “% Well Effect” value (31.6256 uM, minus efflux inhibitor, CC50 run 24-Apr-2020) was 0.83% and -8.49%, the “% Well Effect” value (31.6256 uM, plus 0.5 uM efflux inhibitor, CC50 run 22-may-2020) was 5.31% and the “% Well Effect” value (31.6256 uM, plus 0.5 uM efflux inhibitor, CC50 run 24-Apr-2020) was -3.70%. For the same molecule, the “% Well Effect” value (100 uM, minus efflux inhibitor, CC50 run 24-Apr-2020) was -3.72% and -12.98%, the “% Well Effect” value (100 uM, plus 0.5 uM efflux inhibitor, CC50 run 22-may-2020) was -0.43% and the “% Well Effect” value (100 uM, plus 0.5 uM efflux inhibitor, CC50 run 24-Apr-2020) was -3.29%. For the same molecule, the “% Well Effect” value (CC50 data, MRC-5 cells, run 22-may-2020, plate GCNS00043792A, [Assay] 0.031642 uM) was -3.27% and -2.12%, the “% Well Effect” value (CC50 data, MRC-5 cells, run 22-may-2020, plate GCNS00043792A, [Assay] 0.100053 uM) was -1.81% and 2.13% and the “% Well Effect” value (CC50 data, MRC-5 cells, run 22-may-2020, plate GCNS00043792A, [Assay] 0.316367 uM) was -2.43% and 2.23%. For the same molecule, the “% Well Effect” value (CC50 data, MRC-5 cells, run 22-may-2020, plate GCNS00043792A, [Assay] 1.00035 uM) was 1.33% and 1.48%, the “% Well Effect” value (CC50 data, MRC-5 cells, run 22-may-2020, plate GCNS00043792A, [Assay] 3.16311 uM) was -3.27% and the “% Well Effect” value (CC50 data, MRC-5 cells, run 22-may-2020, plate GCNS00043792A, [Assay] 10.0018 uM) was -1.55%. The “% Well Effect” value (CC50 data, MRC-5 cells, run 22-may-2020, plate GCNS00043792A, [Assay] 31.6256 uM) was 0.64%, the “% Well Effect” value (CC50 data, MRC-5 cells, run 22-may-2020, plate GCNS00043792A, [Assay] 100 uM) was -1.12% and the “% Well Effect” value (CC50 data, MRC-5 cells, run 24-Apr-2020, plate GCNS00043676A, [Assay] 0.0316422 uM) was -8.00% and -3.89%. The “% Well Effect” value (CC50 data, MRC-5 cells, run 24-Apr-2020, plate GCNS00043676A, [Assay] 0.100053 uM) was -11.58% and -9.10%, the “% Well Effect” value (CC50 data, MRC-5 cells, run 24-Apr-2020, plate GCNS00043676A, [Assay] 0.316367 uM) was -6.82% and -8.60% and the “% Well Effect” value (CC50 data, MRC-5 cells, run 24-Apr-2020, plate GCNS00043676A, [Assay] 1.00035 uM) was -10.61% and -9.50%. For the same molecule, the “% Well Effect” value (CC50 data, MRC-5 cells, run 24-Apr-2020, plate GCNS00043676A, [Assay] 3.16311 uM) was -5.78%, the “% Well Effect” value (CC50 data, MRC-5 cells, run 24-Apr-2020, plate GCNS00043676A, [Assay] 10.0018 uM) was -3.01% and the “% Well Effect” value (CC50 data, MRC-5 cells, run 24-Apr-2020, plate GCNS00043676A, [Assay] 31.6256 uM) was -3.17%. For the same molecule, the “% Well Effect” value (CC50 data, MRC-5 cells, run 24-Apr-2020, plate GCNS00043676A, [Assay] 100 uM) was 0.84%, the “% Effect” value (Concentration 0.78125, minus efflux inhibitor) was -1.26% and -6.59% and the “% Effect” value (Concentration 1.5625, minus efflux inhibitor) was -9.86% and -8.48%. The “% Effect” value (Concentration 3.125, minus efflux inhibitor) was -3.51% and -6.64%, the “% Effect” value (Concentration 6.25, minus efflux inhibitor) was -4.42% and -7.91% and the “% Effect” value (Concentration 12.5, minus efflux inhibitor) was -6.72% and -7.11%. The “% Effect” value (Concentration 25, minus efflux inhibitor) was -6.44% and -6.96%, the “% Effect” value (Concentration 50, minus efflux inhibitor) was -10.88% and -4.85% and the “% Effect” value (Concentration 100, minus efflux inhibitor) was -4.27% and -7.38%.
